Experimental data as given in publication PMC7381750, “JP1 suppresses proliferation and metastasis of melanoma through MEK1/2 mediated NEDD4L-SP1-Integrin αvβ3 signaling” (Theranostics, 2020).

Test system: B16F10 cell
Test: B16F10 melanoma-bearing model, JP1 and DTIC alone or in combination
Assay type: in vivo, mouse
Procedure: (A-C) (A) Schematic representation of the B16F10 and MEWO cells melanoma-bearing model for JP1 treatment (n = 6 per group). JP1 and its control agents were administered by intraperitoneal injection. […] (D-G) (D) Schematic representation of the B16F10 cell melanoma passive metastasis model for JP1 treatment. JP1 and its control agents were administered by intraperitoneal injection. […] (F) The representative melanoma lung metastatic images by H&E-staining (scale bars, 1000 μm). […] (J-L) (J) Schematic representation of the B16F10 cell melanoma-bearing model (n= 6 per group). Both JP1 and DTIC alone or in combination treatments and relative control was administered by intraperitoneal injection in mice.
The chemotherapeutic agent dacarbazine (DTIC) is currently as the first line drug used to treat metastatic melanoma in clinic, and was reported to cause painful symptoms and acquired resistance, compromising patient quality of life. To determine the possibility as a combination therapy between DTIC and JP1, we completed a joint treatment of DTIC and JP1 for melanoma tumor-bearing model (Figure 2J).

`CN(C)/N=N/c1[nH]cnc1C(N)=O` [DTIC, dacarbazine] was tested, and the “body weight during treatment” value (80 mg/kg DTIC i.p.) was “lost body weight continuously during treatment”, the “inhibitory effect on melanoma proliferation” value (80 mg/kg DTIC i.p., B16F10 melanoma-bearing mouse) was “more significant inhibitory effect on melanoma proliferation than that by 50 mg/kg JP1” and the “liver HE staining” value (after DTIC treatment) was “significant degenerations in liver cells”.
